In brackets after ≈: the same amount, converted by molar mass.
Legend:
[1] = tested on: YS 18 yeast cells; test: Growth curves of yeast in liquid YPD medium with soraphen A (OD600, viable cell titer); type: cell-based, Saccharomyces cerevisiae
Protocol: Saccharomyces cerevisiae strain YS 18 (MATeα; his 3-11, 3-15; leu 2-3, 2-112; ura 3-Δ5; can^R; cir^+) is chosen as the wild-type. YHV 18 (MATa; his 3-11, 3-15; leu 2-3, 2-112; ura 3-Δ5; canst; cir^+) is isolated after a mating type switch of YS 18 and is therefore isogenic.
100 ml YPD medium in a 500 ml flask is inoculated with about 10^7 YS 18 yeast cells/ml and incubated for growth at 180 rpm at 30° C. Before the addition of soraphen A at time point 0, the cells have already been incubated for 1 hour. The control is treated identically, but receives no soraphen A. Total cell numers are monitored by measuring the OD600. The number of viable cells called the […] is determined by plating on YPD plates. The number of soraphen A resistant cells is counted by plating on YPD-SOR plates containing the same soraphen A concentration as in the flask.

[2] = tested on: diploids from the backcrosses of soraphen A resistant yeast strains; test: Determination of the minimal inhibitory concentration (MIC) on YPD-SOR plates, diploids from backcrosses of soraphen A resistant strains; type: cell-based, Saccharomyces cerevisiae; conditions: diploids from backcrosses vs wild-type
Protocol: In a first step all of the mutants are backcrossed with the wild-type strain of the opposite mating type, the diploid strains are sporulated and the asci are subjected to tetrad analysis. From each cross at least six complete tetra are examined and all of them are found to segregate 2:2 for soraphen A resistance and soraphen A sensitivity. This indicates mutations at a single genetic locus.
In another step the MIC of the dipbids from the backcrosses is determined.
Yeast colonies are grown for 2 days at 30° C. on a YPD plate and replica pated on a set of YPD-SOR plates. The following soraphen A concentrations are used: 0 μg/ml, 0,35 μg/ml, 0,76 μg/ml, 1,5 μg/ml, 3,13 μg/ml 6,7 μg/ml, 15,45 μg/ml and 54,5 μg/ml. After growth for 24 hours at 30° C. the plates are inspected for growth.

[3] = tested on: strains YS 18 and YHV 18 (culture A); test: Plating of culture A on YPD-SOR-10; type: cell-based, Saccharomyces cerevisiae; conditions: 10 μg/ml soraphen A, 30° C., 3 days
Protocol: YPD-SOR-10 is YPD medium supplemented with 10 μg/ml soraphen A.
Each of the isogenic strains YS 18 and YHV 18 is grown in 5 ml of YPD to late exponential phase. The culture is diluted 10^4 fold to give culture A the viable cell number of which is determined. Twenty tubes each containing 5 ml of YPD are inoculated with 10 μl of culture A, which corresponds to about 10 cells, and are incubated at 28° C. until a density of 10^7 cells/ml is attained. 1 ml aliquots of each of the tubes are plated on YPD-SOR-10 and the plates are incubated at 30° C. for 3 days. To ensure isolation of independent mutants from each of the 20 YPD-SOR-10 plates only colonies with different shape or sizes are selected. Mutant colonies are restreaked twice on YPD before storing them as glycerol stock cultures at -70° C.
To exclude the presence of soraphen A resistant routants at the beginning of the cultivation of culture A, the remainder of culture A is plated on YPD-SOR-10 and incubated at 30° C. for 3 days.

[4] = tested on: fungi; conditions: cited from earlier work
[5] = tested on: bacteria; conditions: cited from earlier work
[6] = tested on: acetyl-CoA carboxylase; conditions: cited from earlier work

COC1/C=C/C(C)C2OC(O)(C(C)C(=O)OC(c3ccccc3)CCCCC1OC)C(OC)C(O)C2C (centres unmarked) [soraphen A]
MIC ([1]; Saccharomyces cerevisiae, YS 18 wild-type, YPD, 30° C., 180 rpm, read-out: minimal inhibitory concentration (MIC) as determined from the growth curves): 0.1 mg/L (≈ 0.192 µM)
duration of complete inhibition of growth ([1]; YS 18, YPD, 30° C., thereafter growth recovers due to soraphen A resistant mutants): approximately 40 hours
cell killing (viable cell counts) ([1]; YS 18, during the first 20 hours): extensive cell killing occurs
sensitivity of the diploids compared with the wild-type strain [2]: None of the diploids is as sensitive to soraphen A as the wild-type strain
growth of colonies [3]: No growth of colonies is observed
activity as a fungicide [4]: strong activity as a fungicide
effect on bacteria [5]: without effect on bacteria
interference with acetyl-CoA carboxylase [6]: shown to interfere with acetyl-CoA carboxylase

Reference: patent publication US5641666A, “Soraphen A resistant fungi and acetyl-CoA carboxylase” (priority 1993, dated 1997)
